Test results reported in patent publication US20190046490A1, “METHODS OF TREATING LACTOSE INTOLERANCE” (Nogra Pharma Limited, priority 2016, published 2019).

Target: T1, PPARγ bound to DR2 PPRE of the LCT gene promoter (Homo sapiens, UniProt P37231)
T1 construct: Chromatin immunoprecipitation (ChIP) experiments in Caco-2 cells (5×10^6 cells) stimulated for 24 hours with 1 mM GED; endogenous in cells; host or cells: Caco-2 (colonic adenocarcinoma) cells
T1 sequence (P37231 1-505): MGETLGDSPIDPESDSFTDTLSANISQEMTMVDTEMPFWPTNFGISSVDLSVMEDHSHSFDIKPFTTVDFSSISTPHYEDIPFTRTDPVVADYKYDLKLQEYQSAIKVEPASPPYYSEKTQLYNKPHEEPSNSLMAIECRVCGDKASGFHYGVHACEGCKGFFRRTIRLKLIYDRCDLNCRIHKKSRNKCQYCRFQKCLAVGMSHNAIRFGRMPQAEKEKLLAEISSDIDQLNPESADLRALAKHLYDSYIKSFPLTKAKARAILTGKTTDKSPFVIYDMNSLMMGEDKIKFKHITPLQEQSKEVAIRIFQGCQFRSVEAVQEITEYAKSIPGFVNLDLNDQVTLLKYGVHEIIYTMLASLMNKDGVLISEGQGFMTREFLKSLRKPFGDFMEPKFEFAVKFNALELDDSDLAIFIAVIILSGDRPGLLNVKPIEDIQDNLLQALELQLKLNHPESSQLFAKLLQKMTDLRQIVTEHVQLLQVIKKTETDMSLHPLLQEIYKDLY
T1 sequence (P19793 1-462 partner): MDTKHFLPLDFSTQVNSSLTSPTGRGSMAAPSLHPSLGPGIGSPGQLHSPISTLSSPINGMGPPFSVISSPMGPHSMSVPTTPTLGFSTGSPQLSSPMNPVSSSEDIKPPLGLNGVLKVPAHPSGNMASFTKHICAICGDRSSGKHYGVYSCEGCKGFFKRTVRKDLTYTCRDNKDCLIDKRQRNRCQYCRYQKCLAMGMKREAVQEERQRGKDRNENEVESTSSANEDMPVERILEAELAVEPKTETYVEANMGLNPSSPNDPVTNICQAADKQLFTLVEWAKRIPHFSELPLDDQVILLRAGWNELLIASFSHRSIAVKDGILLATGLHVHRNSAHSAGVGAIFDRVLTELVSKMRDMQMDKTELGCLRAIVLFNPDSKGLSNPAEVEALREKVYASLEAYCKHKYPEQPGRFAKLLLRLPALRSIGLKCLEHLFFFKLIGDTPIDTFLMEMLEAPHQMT
Test: Chromatin immunoprecipitation of PPARγ on the LCT gene promoter in Caco-2 cells
Format: cell-based
Conditions: 1 mM, 24 hours
Experimental: The physical binding of PPARγ onto the LCT gene promoter was studied by Chromatin immunoprecipitation (ChIP) experiments in Caco-2 cells (5×10^6 cells) stimulated for 24 hours with 1 mM GED in 100 mm cell culture petri dishes. Caco-2 cells were synchronized by the addition of serum-free medium for 16 hours and then stimulated for 24 hours using the protocol described previously. Cells were then rinsed with PBS and the protein-DNA complexes were fixed by adding 1% PFA for 30 minutes at room temperature. This binding was stopped by the addition of glycine (0.125M). Cells were collected by scraping in the presence of cold PBS and protease inhibitors (Sigma). The cell pellet obtained by centrifugation was taken up in 300 μl SDS buffer (1% SDS, 10 mM EDTA, 50 mM Tris-HCl pH 8, protease inhibitors) and sonicated (Diagenode, BioruptorUCD200TM-EX) for 30 seconds, followed by 30 seconds resting time. For each immunoprecipitation, 125 μL of crosslinked sonicated sample was diluted with 225 μl of IP buffer (1% triton X-100, 150 mM NaCl, 2 mM EDTA, 20 mM Tris-HCl pH 8.1 and protease inhibitors) and pre-cleared for four hours by adding 40 μL of protein A/G beads (50% slurry protein A/G Sepharose, Clinisciences) and 5 μg of salmon sperm DNA (Invitrogen). […] DNA was then purified using the PCR Clean-up kit (Macherey-Nagel) and analyzed by PCR.

COC(Cc1ccc(N)cc1)C(=O)O (stereo not shown) [GED, 3-(4′-aminophenyl)2-methoxypropionic acid]
increase of the amount of PPARγ bound to the DR2 PPRE compared to unstimulated cells: 2 fold
